# Results published in patent US11518763B2 (SCOHIA PHARMA, INC., priority 2018, dated 2022).
# Like-named read-outs stand apart in the source and are kept apart here.
# Experiments:
# [1] = amide bond, HATU, DMF
# [2] = molecular target: T1, binding between NRF2 and KEAP1 (biotinylated human KEAP1 protein (Kelch domain), TAMRA-labeled NRF2 peptide) (Homo sapiens, UniProt Q14145); experiment: Measurement of activity of inhibiting NRF2 binding (NRF2-KEAP1 TR-FRET); details: inhibition rate relative to control at 100 nM test compound; TR-FRET; 60 min at room temperature; read-out: NRF2 binding inhibitory activity (at 100 nM)
# T1 construct: biotinylated human KEAP1 protein (Kelch domain); biotin (biotinylated)
# T1 sequence (Q14145 321-609 limits assumed): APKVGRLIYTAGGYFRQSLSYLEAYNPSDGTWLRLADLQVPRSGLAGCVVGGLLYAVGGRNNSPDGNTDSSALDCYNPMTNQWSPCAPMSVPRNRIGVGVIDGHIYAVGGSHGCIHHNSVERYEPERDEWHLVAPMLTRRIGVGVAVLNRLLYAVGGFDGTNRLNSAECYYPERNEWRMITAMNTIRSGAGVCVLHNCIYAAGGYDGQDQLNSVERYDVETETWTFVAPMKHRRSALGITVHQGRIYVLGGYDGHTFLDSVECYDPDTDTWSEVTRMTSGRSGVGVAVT
smiles,measurement,setting,value
CCOC(=O)CC1c2ccc3c(c2)CN(CC3)C(=O)c2ccc(cc2)COCCCn2nnc3c(C)c1ccc32 (stereo not drawn),"ring closure, yield of all isomers","[1]; from CCOC(=O)CC(c1ccc2c(c1)CN(C(=O)OC(C)(C)C)CC2)c1ccc2c(nnn2CCCOCc2ccc(C(=O)OC(C)(C)C)cc2)c1C, 23.0 mM, 25.0 °C, 3.0 h, 2 steps",67.7%
"CCOC(=O)CC1c2ccc3c(c2)CN(CC3)C(=O)c2ccc(cc2)CCCCCn2nnc3c(C)c1ccc32 (stereo not drawn) [Example 37, Ethyl [32-methyl-20-oxo-8,9,10,21-tetraazahexacyclo[19.5.3.2^16,19.1^3,7.0^6,10.0^24,28]dotriaconta-1(26),3(32),4,6,8,16,18,24,27,30-decaen-2-yl]acetate]","ring closure, yield of all isomers","[1]; from CCOC(=O)CC(c1ccc2c(c1)CN(C(=O)OC(C)(C)C)CC2)c1ccc2c(nnn2CCCCCc2ccc(C(=O)OC(C)(C)C)cc2)c1C, 51.2 mM, 25.0 °C, 4.0 h, 2 steps",52.4%
same,inhibition at 0.1 µM,[2],29%
COC(=O)C(C)(C)C1c2ccc3c(c2)CN(CC3)C(=O)c2c(C)cc(cc2C)COCCCn2nnc3c(C)c1ccc32 (stereo not drawn),"ring closure, yield of all isomers","[1]; from COC(=O)C(C)(C)C(c1ccc2c(c1)CNCC2)c1ccc2c(nnn2CCCOCc2cc(C)c(C(=O)O)c(C)c2)c1C, 30.4 mM, 25.0 °C, 4.0 h",29.6%
COC(=O)C(C)(C)C1c2ccc3c(c2)CN(CC3)C(=O)c2ccc(cc2)CCCCCn2nnc3c(C)c1ccc32 (stereo not drawn),"ring closure, yield of all isomers","[1]; from COC(=O)C(C)(C)C(c1ccc2c(c1)CNCC2)c1ccc2c(nnn2CCCCCc2ccc(C(=O)O)cc2)c1C, 17.6 mM, 30.0 °C, 19.0 h",12.4%
COC(=O)C(C)(C)C1c2ccc3c(c2)CN(CC3)C(=O)c2ccc(cc2)COCCCn2nnc3c(C)c1ccc32 (stereo not drawn),"ring closure, yield of all isomers","[1]; from COC(=O)C(C)(C)C(c1ccc2c(c1)CNCC2)c1ccc2c(nnn2CCCOCc2ccc(C(=O)O)cc2)c1C, 18.6 mM, 25.0 °C, 4.0 h",20.7%
